Measurements as given in PMC12024457 (Antioxidants, 2025).

Tests used:
[1] = TE: Trolox equivalent
[2] = DPPH radical scavenging assay; details: read-out: DPPH (EC50)
human LX2 stellate cells = experiment: MTT cell viability, LX2; format: cell-based; details: LX2, 48 h, up to 30 µM
Procedure: (§1) MDA-MB-231 and LX2 cells were seeded in triplicate in 96-well plates at a density of 20,000 cells per well in 100 μL of medium and allowed to attach for 24 h at 37 °C and 5% CO2. Compounds were added at a final DMSO concentration of 0.5%, and cells were incubated for an additional 48 h. The pan-kinase inhibitor staurosporine (1 µM, Merck) was used as a reference compound, and the concentration was selected to efficiently induce cell death (≥90%). […]. The concentrations of Q-VD-OPh and ferrostatin-1 were chosen based on commonly applied ranges reported in the literature and were further optimized in preliminary experiments using the apoptosis inducers etoposide and staurosporine, as well as the ferroptosis inducer RSL3, to ensure suppression of apoptosis and ferroptosis, respectively. […] For the MTT assay, 20 µL of 3-(4,5-dimethylthiazol-2-yl)-2,5-diphenyltetrazolium bromide (MTT, 5 mg/mL in PBS pH = 7.4, sterile-filtered, Merck) solution was added to each well, and the cells were incubated for 1.5 h. […] Absorbance was measured at 570 nm using a SpectraMax iD3 plate reader (Molecular Devices). Absorbance values from ethanol-treated cells were used for background subtraction, and cell viability was expressed as percentage relative to the vehicle control (DMSO). […]

[3] = tested on: human triple-negative MDA-MB-231 breast cancer cells; experiment: MTT cell viability, MDA-MB-231; format: cell-based; details: MDA-MB-231, 48 h, up to 30 µM
Procedure: as §1

[4] = tested on: Human MDA-MB-231 breast cancer cells; format: cell-based
Procedure: MDA-MB-231 and LX2 cells were seeded in triplicate in 96-well plates at a density of 20,000 cells per well in 100 μL of medium and allowed to attach for 24 h at 37 °C and 5% CO2. Compounds were added at a final DMSO concentration of 0.5%, and cells were incubated for an additional 48 h. The pan-kinase inhibitor staurosporine (1 µM, Merck) was used as a reference compound, and the concentration was selected to efficiently induce cell death (≥90%). […]. The concentrations of Q-VD-OPh and ferrostatin-1 were chosen based on commonly applied ranges reported in the literature and were further optimized in preliminary experiments using the apoptosis inducers etoposide and staurosporine, as well as the ferroptosis inducer RSL3, to ensure suppression of apoptosis and ferroptosis, respectively. […] Absorbance was measured at 570 nm using a SpectraMax iD3 plate reader (Molecular Devices). Absorbance values from ethanol-treated cells were used for background subtraction, and cell viability was expressed as percentage relative to the vehicle control (DMSO). […]
Cells were treated with vehicle (0.5% DMSO) or compounds at different concentrations (0.3, 1, 3, 10, and 30 μM) for 48 h. Cell viability measured by MTT assay. […]

MDA-MB-231 cells = experiment: Inhibition of RSL3-induced ferroptotic cell death (MTT); format: cell-based, human; details: at either 3 or 30 μM, RSL3 0.3 µM
Procedure: The anti-ferroptotic properties of the compounds were evaluated in MDA-MB-231 cells. Cells were seeded in 96-well plates at a density of 20,000 cells per well in 100 μL of medium. After 24 h at 37 °C and 5% CO2, cells were treated with the vehicle (0.5% DMSO) or the compounds at 3 µM and 30 µM alone or in combination with RSL3 (0.3 μM, Cayman Chemicals) for an additional 48 h. The cellular dehydrogenase activity was assessed by the reduction of MTT, as described in Section 2.4.
Radar plot illustrating cell viability measured by MTT assay. […] Data are presented as the mean of n = 3 independent experiments. * p < 0.05, ** p < 0.01; paired Student’s t-test.

EC50 [2] [µM]	SMILES	ORAC (TE) [1] [TE]	EC50 (human LX2 stellate cells) [µM]	EC50 [3] [µM]	effect of ferroptosis inhibitor Fer-1 on compound-induced cell death ([4]; Fer-1 10 μM, 48 h)	effect of apoptosis inhibitor Q-VD on compound-induced cell death ([4]; human)	cytoprotective effects against RSL3-induced ferroptosis (MDA-MB-231 cells)
31 ± 2.6	COc1cc(CCO)ccc1O [MTYR, 3-methoxy-tyrosol]	2.90 ± 0.21	–	–	–	–	–
–	COc1cc(/C=C/C(=O)CC(=O)/C=C/c2ccc(O)c(OC)c2)ccc1O [Curcumin]	–	23	20	partially attenuated by Fer-1	tendentially by Q-VD	did not exhibit cytoprotective effects
> 1000	COc1ccc2[nH]cc(CCO)c2c1 [MEL, 5-methoxytryptophol]	2.23 ± 0.12	–	–	–	–	–
> 1000	OCCc1ccc(O)cc1 [TYR, tyrosol]	2.18 ± 0.12	–	–	–	–	–

SMILES	EC50 [2] [µM]	ORAC (TE) [1] [TE]	EC50 (human LX2 stellate cells) [µM]	EC50 [3] [µM]	effect of ferroptosis inhibitor Fer-1 on compound-induced cell death ([4]; Fer-1 10 μM, 48 h)	effect of apoptosis inhibitor Q-VD on compound-induced cell death ([4]; human)	cytoprotective effects against RSL3-induced ferroptosis (MDA-MB-231 cells)
OCCc1ccc(O)c(O)c1 [HTYR, 3-hydroxy-tyrosol]	12.3 ± 1	7.40 ± 0.17	–	–	–	–	–
